How the values were obtained:
brain = assay: Matured TTM-001 and TTM-002 variants, NGS enrichment in mouse brain; assay type: in vivo, mice; conditions: relative to AAV9 control
[1] = test system: brains, heart, liver, muscle, and DRG of the NHPs; assay: Maturation of TTM-001 and TTM-002 capsids, NGS enrichment in NHP tissues; assay type: in vivo; conditions: relative to AAV9 control
Outline: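 Variants carry mutations within and flanking the loop IV peptide insert: positions 450–466 were triplet-randomized, while positions 449–466 received low-frequency point mutations. The combined pool went into two NHPs, and each peptide was scored by NGS enrichment ratio against AAV9.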

[2] = NGS fold-enrichment, brain of mice
[3] = NGS fold-enrichment, mouse brain
[4] = NGS fold-enrichment of RNA, NHP brain
[5] = NGS fold-enrichment, DRG of NHPs
[6] = NGS fold-enrichment, NHP liver DNA
[7] = NGS fold-enrichment, NHP liver RNA
[8] = NGS fold-enrichment, NHP muscle
[9] = NGS fold-enrichment, RNA, brain of NHPs
[10] = NGS fold-enrichment, heart of NHPs
[11] = NGS fold-enrichment, liver DNA of NHPs
[12] = NGS fold-enrichment, liver RNA of NHPs
[13] = NGS fold-enrichment, muscle of NHPs
[14] = NGS fold-enrichment of matured AAV capsid variants, NHP brain, RNA

KTVNGNGSPHSKAQNKQT was tested, and the “Fold Enrichment relative to AAV9, Brain (Mouse)” value (brain; [2]) was 69.455 fold, the “Fold Enrichment relative to AAV9, Brain (Mouse)” value (brain; [3]) was 69.455 fold and the “Fold Enrichment relative to AAV9, Brain (NHP)” value [1, 4] was 81.481 fold. The “Fold Enrichment relative to AAV9, DRG (NHP)” value [1, 5] was 0.000 fold, the “Fold Enrichment relative to AAV9, DRG (NHP)” value ([1]; NGS fold-enrichment, NHP DRG) was 0.000 fold and the “Fold Enrichment relative to AAV9, Heart (NHP)” value ([1]; NGS fold-enrichment, NHP heart) was 0.000 fold. For the same sequence, the “Fold Enrichment relative to AAV9, Liver DNA (NHP)” value [1, 6] was 0.122 fold, the “Fold Enrichment relative to AAV9, Liver RNA (NHP)” value [1, 7] was 0.000 fold and the “Fold Enrichment relative to AAV9, Muscle (NHP)” value [1, 8] was 0.000 fold. The “Fold Enrichment relative to AAV9, Brain (NHP)” value [1, 9] was 81.481 fold, the “Fold Enrichment relative to AAV9, Heart (NHP)” value [1, 10] was 0.000 fold and the “Fold Enrichment relative to AAV9, Liver DNA (NHP)” value [1, 11] was 0.122 fold. For the same sequence, the “Fold Enrichment relative to AAV9, Liver RNA (NHP)” value [1, 12] was 0.000 fold and the “Fold Enrichment relative to AAV9, Muscle (NHP)” value [1, 13] was 0.000 fold.
With KTVNGNGSPHSKAQNQHT the “Fold Enrichment relative to AAV9, Brain (Mouse)” value (brain; [2]) was 54.086 fold, the “Fold Enrichment relative to AAV9, Brain (Mouse)” value (brain; [3]) was 54.086 fold and the “Fold Enrichment relative to AAV9, Brain (NHP)” value [1, 4] was 78.849 fold. The “Fold Enrichment relative to AAV9, DRG (NHP)” value [1, 5] was 0.000 fold, the “Fold Enrichment relative to AAV9, DRG (NHP)” value ([1]; NGS fold-enrichment, NHP DRG) was 0.000 fold and the “Fold Enrichment relative to AAV9, Heart (NHP)” value ([1]; NGS fold-enrichment, NHP heart) was 0.000 fold. The “Fold Enrichment relative to AAV9, Liver DNA (NHP)” value [1, 6] was 0.045 fold, the “Fold Enrichment relative to AAV9, Liver RNA (NHP)” value [1, 7] was 0.000 fold and the “Fold Enrichment relative to AAV9, Muscle (NHP)” value [1, 8] was 0.000 fold. For the same sequence, the “Fold Enrichment relative to AAV9, Brain (NHP)” value [1, 9] was 78.849 fold, the “Fold Enrichment relative to AAV9, Heart (NHP)” value [1, 10] was 0.000 fold and the “Fold Enrichment relative to AAV9, Liver DNA (NHP)” value [1, 11] was 0.045 fold. For the same sequence, the “Fold Enrichment relative to AAV9, Liver RNA (NHP)” value [1, 12] was 0.000 fold and the “Fold Enrichment relative to AAV9, Muscle (NHP)” value [1, 13] was 0.000 fold.
With KTVNGNGSPHSKSQNQQT the “Fold Enrichment relative to AAV9, Brain (Mouse)” value (brain; mouse brain) was 95.384 fold, the “Fold Enrichment relative to AAV9, Brain (NHP)” value [1, 14] was 54.586 fold and the “Fold Enrichment relative to AAV9, DRG (NHP)” value ([1]; NHP DRG) was 0.000 fold. The “Fold Enrichment relative to AAV9, Heart (NHP)” value ([1]; NHP heart) was 0.000 fold, the “Fold Enrichment relative to AAV9, Liver DNA (NHP)” value ([1]; NHP liver, DNA) was 0.168 fold and the “Fold Enrichment relative to AAV9, Liver RNA (NHP)” value ([1]; NHP liver, RNA) was 0.256 fold. The “Fold Enrichment relative to AAV9, Muscle (NHP)” value ([1]; NHP muscle) was 0.000 fold.
For KTVNGSGSPHSKAPNQHT, the “Fold Enrichment relative to AAV9, Brain (Mouse)” value (brain; [2]) was 51.008 fold, the “Fold Enrichment relative to AAV9, Brain (Mouse)” value (brain; [3]) was 51.008 fold and the “Fold Enrichment relative to AAV9, Brain (NHP)” value [1, 4] was 117.207 fold. For the same sequence, the “Fold Enrichment relative to AAV9, DRG (NHP)” value [1, 5] was 0.000 fold, the “Fold Enrichment relative to AAV9, DRG (NHP)” value ([1]; NGS fold-enrichment, NHP DRG) was 0.000 fold and the “Fold Enrichment relative to AAV9, Heart (NHP)” value ([1]; NGS fold-enrichment, NHP heart) was 0.109 fold. The “Fold Enrichment relative to AAV9, Liver DNA (NHP)” value [1, 6] was 0.074 fold, the “Fold Enrichment relative to AAV9, Liver RNA (NHP)” value [1, 7] was 0.000 fold and the “Fold Enrichment relative to AAV9, Muscle (NHP)” value [1, 8] was 0.000 fold. For the same sequence, the “Fold Enrichment relative to AAV9, Brain (NHP)” value [1, 9] was 117.207 fold, the “Fold Enrichment relative to AAV9, Heart (NHP)” value [1, 10] was 0.109 fold and the “Fold Enrichment relative to AAV9, Liver DNA (NHP)” value [1, 11] was 0.074 fold. The “Fold Enrichment relative to AAV9, Liver RNA (NHP)” value [1, 12] was 0.000 fold and the “Fold Enrichment relative to AAV9, Muscle (NHP)” value [1, 13] was 0.000 fold.
For KTVNGSGSPHSKAPNQQT, the “Fold Enrichment relative to AAV9, Brain (Mouse)” value (brain; mouse brain) was 58.080 fold, the “Fold Enrichment relative to AAV9, Brain (NHP)” value [1, 14] was 53.444 fold and the “Fold Enrichment relative to AAV9, DRG (NHP)” value ([1]; NHP DRG) was 0.833 fold. For the same sequence, the “Fold Enrichment relative to AAV9, Heart (NHP)” value ([1]; NHP heart) was 2.206 fold, the “Fold Enrichment relative to AAV9, Liver DNA (NHP)” value ([1]; NHP liver, DNA) was 0.178 fold and the “Fold Enrichment relative to AAV9, Liver RNA (NHP)” value ([1]; NHP liver, RNA) was 0.156 fold. For the same sequence, the “Fold Enrichment relative to AAV9, Muscle (NHP)” value ([1]; NHP muscle) was 0.006 fold.
For KTVNGSGSPHSKAQDKQT, the “Fold Enrichment relative to AAV9, Brain (Mouse)” value (brain; mouse brain) was 69.225 fold, the “Fold Enrichment relative to AAV9, Brain (NHP)” value [1, 14] was 51.580 fold and the “Fold Enrichment relative to AAV9, DRG (NHP)” value ([1]; NHP DRG) was 0.428 fold. The “Fold Enrichment relative to AAV9, Heart (NHP)” value ([1]; NHP heart) was 0.000 fold, the “Fold Enrichment relative to AAV9, Liver DNA (NHP)” value ([1]; NHP liver, DNA) was 0.063 fold and the “Fold Enrichment relative to AAV9, Liver RNA (NHP)” value ([1]; NHP liver, RNA) was 0.041 fold. For the same sequence, the “Fold Enrichment relative to AAV9, Muscle (NHP)” value ([1]; NHP muscle) was 0.069 fold.
With KTVNGSGSPHSKAQHLQT the “Fold Enrichment relative to AAV9, Brain (Mouse)” value (brain; mouse brain) was 62.743 fold, the “Fold Enrichment relative to AAV9, Brain (NHP)” value [1, 14] was 55.739 fold and the “Fold Enrichment relative to AAV9, DRG (NHP)” value ([1]; NHP DRG) was 0.091 fold. For the same sequence, the “Fold Enrichment relative to AAV9, Heart (NHP)” value ([1]; NHP heart) was 0.036 fold, the “Fold Enrichment relative to AAV9, Liver DNA (NHP)” value ([1]; NHP liver, DNA) was 0.409 fold and the “Fold Enrichment relative to AAV9, Liver RNA (NHP)” value ([1]; NHP liver, RNA) was 0.062 fold. For the same sequence, the “Fold Enrichment relative to AAV9, Muscle (NHP)” value ([1]; NHP muscle) was 0.000 fold.
In the case of KTVNGSGSPHSKAQLQQT, the “Fold Enrichment relative to AAV9, Brain (Mouse)” value (brain; mouse brain) is reported as 81.201 fold, the “Fold Enrichment relative to AAV9, Brain (NHP)” value [1, 14] is reported as 58.681 fold and the “Fold Enrichment relative to AAV9, DRG (NHP)” value ([1]; NHP DRG) is reported as 0.315 fold. The “Fold Enrichment relative to AAV9, Heart (NHP)” value ([1]; NHP heart) was 0.465 fold, the “Fold Enrichment relative to AAV9, Liver DNA (NHP)” value ([1]; NHP liver, DNA) was 0.333 fold and the “Fold Enrichment relative to AAV9, Liver RNA (NHP)” value ([1]; NHP liver, RNA) was 0.529 fold. For the same sequence, the “Fold Enrichment relative to AAV9, Muscle (NHP)” value ([1]; NHP muscle) was 0.045 fold.

— patent US20260250318A1, “COMPOSITIONS AND METHODS FOR CROSSING THE BLOOD BRAIN BARRIER” (VOYAGER THERAPEUTICS, INC., priority 2022, published 2026)
